These results are taken from article PMC6560211, “ApoAI-derived peptide increases glucose tolerance and prevents formation of atherosclerosis in mice” (Diabetologia, 2019).

No end group written: not given here.

The experiment has as its system Lepr db (db/db) mice. Briefly: GTT in db/db mice. The class given is in vivo, mouse. The protocol: Male C57BL/6NTac mice (Taconic, Ejby, Denmark) at 8–9 weeks of age were acclimatised for 1 week on a normal chow diet, then changed to a high-fat diet for 2 weeks (diet-induced obesity; DIO), followed by GTT as indicated. Male Lepr^db (db/db) mice on a BKS background (Taconic) at 5 weeks of age were maintained on a normal chow diet and GTTs were performed at 5.5 and 14 weeks of age as indicated. Blood glucose levels were measured in fresh blood (C57: OneTouch Ultra2, Lifescan, Milpitas, CA, USA; db/db: GlucoSmart Swing, MSP bodmann, Bobingen, Germany) and insulin levels were assayed in serum using ELISA (Mercodia) at the times indicated in ESM Fig. 2. See ESM Methods for more details.
Fig. 4 Acute treatment with RG54 improves glucose tolerance during GTTs in three models of type 2 diabetes. Male C57Bl/6 mice fed a high-fat diet for 2 weeks (a–d) or db/db mice at 5.5 (e–h) or 14 (i–l) weeks old were fasted overnight, then treated with a single i.p. injection of NaCl (negative control, 200 μl; C57, n=12; db/db 5.5 weeks, n=6; db/db 14 weeks, n=6), liraglutide (0.1 mg/kg; C57, n=11; db/db 5.5 weeks, n=6; db/db 14 weeks, n=6), ApoA-I (14 mg/kg; C57, n=12; db/db 5.5 weeks, n=6; db/db 14 weeks, n=6) or RG54 (12 mg/kg; C57, n=12; db/db 5.5 weeks, n=6; db/db 14 weeks, n=5). After a further 3 h, mice received an i.p. glucose load (40 mg/mouse for C57; 50 mg/mouse for db/db) followed by blood and plasma collection at the indicated times, and blood glucose (a,e,i) and plasma insulin (b,f,j) concentrations were determined. Total AUC was calculated (mmol/l × min for glucose, pmol/l × min for insulin) and then normalised to the average value of the relevant NaCl control group to give relative AUC (% control) for glucose (c,g,k) and insulin (d,h,l). Values are means ± SEM. *p≤0.05, **p≤0.01, ***p≤0.001 vs NaCl control […]
We next used type 2 diabetes models with a more advanced phenotype: db/db mice at 5.5 and 14 weeks of age.
At 14 weeks of age, mice were markedly obese with a mean ± SEM body weight of 55.3 ± 0.6 g. […] One mouse was excluded from RG54 treatment group because of very high residual insulin secretion prior to the experiment.
Male C57BL/6NTac mice were purchased from Taconic (Ejby, Denmark) at 8-9 weeks of age, acclimatised for one week on normal chow diet, then changed to a High-Fat Diet (HFD; Research Diets D12492, 60% fat content) for 2 weeks, followed by glucose tolerance testing (GTT) with timings as indicated (ESM Figure 2). Male Leprdb mice (db/db) on BKS background purchased from Taconic (BKS.Cg-m+/+Leprdb/BomTac, Ejby, Denmark) at 5 weeks of age were maintained on normal chow diet and GTTs were performed at 5.5 and 14 weeks of age with timings as indicated (ESM Figure 2). For the GTTs, mice fasted overnight (9 h) were injected with the appropriate treatment, and after an additional 3 h given ip glucose (C57: 40 mg/mouse; db/db: 50 mg/mouse) followed by collection of serum samples at the indicated times. Blood glucose levels were measured in fresh blood (C57: OnetouchUltra2, Lifescan; db/db: GlucoSmart Swing, MSP bodmann) and insulin levels were assayed in serum using ELISA (Mercodia). db/db mice were independently randomized to treatments groups for GTT at each time point as no carry over was expected between experiments due to the acute nature of the treatment effects. Primary outcomes were blood glucose and insulin measurements during the GTT. C57BL/6NTac mice were euthanized immediately after each experiment whereas db/db were euthanized immediately after the GTT at 14 weeks of age. […]
and reproducible clinical symptoms of diabetes than females in these models [5; 6] thus ensuring the reproducibility of clinical symptoms between animals within the study. […]

Setting [1] is: db/db 5.5 weeks, 3 h treatment, i.p.

As to “Ac-AEYHAKATEHLSTLSEKAKPALEDLRQGLLPVLESFKVSFLSALEEYTKKLNTQ [RG54]”, under setting [1], the fasting glucose levels entry was “significantly lowered”, the fasting insulin secretion result is “no significant changes” and the “insulin sensitivity as measured by QUICKI” value was “no concomitant change”. The “glucose AUC” value (db/db 14 weeks, RG54 12 mg/kg i.p., n=5, vs NaCl) was “no significant change”.
